Assay results published in the NIST ThermoML archive (doi:10.1016/j.jct.2017.02.014).

How the values were obtained:
[1] = refractive index (other wavelength) (dimensionless); settings: 100 kPa, Liquid, Wavelength=632.8 nm, minimum deviation angle method
[2] = refractive index (Na D-line) (dimensionless); settings: 298.15 K; 101.33 kPa; Liquid; Standard Abbe refractometry
[3] = refractive index (other wavelength) (dimensionless); xn = mol fraction of the nth substance listed; settings: 100 kPa, Liquid, Wavelength=632.8 nm, minimum deviation angle method, x2 = 0

CCCC[n+]1ccccc1.F[B-](F)(F)F [1-butylpyridinium tetrafluoroborate]
[1]
Settings | refractive index
281.73 K | 1.4481
282.78 K | 1.4478
284.14 K | 1.4475
285.74 K | 1.4471
286.94 K | 1.4468
288.24 K | 1.4464
289.38 K | 1.4461
290.37 K | 1.4458
292.15 K | 1.4454
293.41 K | 1.4451
295 K | 1.4446
296.89 K | 1.444

Settings | refractive index
[2] | 1.4459

CCO [ethanol]
[1]
Settings | refractive index
282.04 K | 1.3645
283.11 K | 1.364
284.04 K | 1.3637
285.65 K | 1.363
286.62 K | 1.3626
288.17 K | 1.362
289.33 K | 1.3615
290.8 K | 1.3609
291.84 K | 1.3604
292.94 K | 1.36
293.77 K | 1.3596
295.49 K | 1.3589
296.51 K | 1.3585
297.44 K | 1.3581
298.14 K | 1.3578

Settings | refractive index
[2] | 1.3596

CCO [ethanol] + CCCC[n+]1ccccc1.F[B-](F)(F)F
[3]
Settings | refractive index
282.04 K | 1.3645
283.11 K | 1.364
284.04 K | 1.3637
285.65 K | 1.363
286.62 K | 1.3626
288.17 K | 1.362
289.33 K | 1.3615
290.8 K | 1.3609
291.84 K | 1.3604
292.94 K | 1.36
293.77 K | 1.3596
295.49 K | 1.3589
296.51 K | 1.3585
297.44 K | 1.3581
298.14 K | 1.3578
